In PMC4243253 (Biochemical Journal, 2014) one finds Kd data, which are given here for 2 molecules.

Where two headings read alike, the source gives them in different places.

The target of experiment [1] is T1, BaKynB (Bacillus anthracis, UniProt Q81PP9).
T1 construct: gene kynB
Description: biochemical.

Experiment [2] concerns the target T1, BaKynB. Description: biochemical. The source holds these as a separate data set.

T1 sequence (Q81PP9 whole entry, looked up): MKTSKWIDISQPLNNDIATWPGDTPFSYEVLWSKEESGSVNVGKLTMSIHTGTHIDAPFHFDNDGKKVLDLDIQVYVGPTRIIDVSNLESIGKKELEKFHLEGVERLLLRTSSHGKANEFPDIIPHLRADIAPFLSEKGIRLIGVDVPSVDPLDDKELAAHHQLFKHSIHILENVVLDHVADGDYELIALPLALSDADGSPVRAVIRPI

For `Nc1ccccc1C(=O)C[C@H](N)C(=O)O` [L-kynurenine, (S)-2-amino-4-(2-aminophenyl)-4-oxobutanoic acid], the Kd on BaKynB [1] was roughly 60 µM.

As to `CC(=O)c1ccccc1N` [2-aminoacetophenone], the equilibrium dissociation constant (Kd) at BaKynB [2] is roughly 50 µM.
